According to patent US10519152B2, “Compounds and their use in treating cancer” (AstraZeneca AB, priority 2017, dated 2019):

Target: T1, Estrogen Receptor (ERα) in MCF-7 human ductal carcinoma breast cell line (Homo sapiens, UniProt P03372)
T1 construct: endogenous in cells; host or cells: MCF-7
T1 sequence (P03372 1-595): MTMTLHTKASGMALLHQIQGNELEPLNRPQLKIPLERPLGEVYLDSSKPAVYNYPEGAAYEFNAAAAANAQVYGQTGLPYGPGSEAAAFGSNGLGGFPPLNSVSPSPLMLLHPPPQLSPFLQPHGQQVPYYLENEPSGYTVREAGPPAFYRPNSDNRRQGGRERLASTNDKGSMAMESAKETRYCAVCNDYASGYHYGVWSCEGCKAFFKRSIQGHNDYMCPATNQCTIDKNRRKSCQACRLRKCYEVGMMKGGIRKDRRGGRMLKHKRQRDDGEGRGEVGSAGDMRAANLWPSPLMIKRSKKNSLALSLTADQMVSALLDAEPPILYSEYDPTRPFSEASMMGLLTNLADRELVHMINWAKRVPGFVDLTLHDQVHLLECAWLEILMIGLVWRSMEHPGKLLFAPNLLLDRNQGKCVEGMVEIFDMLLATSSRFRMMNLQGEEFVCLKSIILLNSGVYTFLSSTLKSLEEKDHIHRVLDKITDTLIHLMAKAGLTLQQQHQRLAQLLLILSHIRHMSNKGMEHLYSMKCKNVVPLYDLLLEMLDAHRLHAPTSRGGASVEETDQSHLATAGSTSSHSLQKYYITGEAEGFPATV
Test: MCF-7 ER degradation assay (cell based immuno-fluorescence)
Settings: MCF-7 cells; for ER degradation ≥ 90% at 0.3 μM: ER degradation by fulvestrant at 0.3 μM is defined as 100%; for DC50: 18-22 hours incubation, 50% reduction of ERα expression, single experiment or average of two or more, read-out: MCF-7 ER degradation IC50
Method in brief: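 MCF-7 human ductal carcinoma breast cells were seeded at 3.75×10^4 cells per mL (40 μL per well) in 384 well plates with phenol red free DMEM containing 2 mM L-Glutamine and 5% (v/v) Charcoal/Dextran treated foetal calf serum. After overnight culture, compounds were acoustically dispensed, incubated 18-22 hours, then cells were formaldehyde-fixed and immunostained for ERα.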

Cc1ncsc1-c1ccc(CNC(=O)[C@@H]2C[C@@H](O)CN2C(=O)[C@@H](NC(=O)COCC/C=C/CCOc2cc(F)c([C@@H]3c4[nH]c5ccccc5c4C[C@@H](C)N3CC(C)(C)F)c(F)c2)C(C)(C)C)cc1 [Example 22, (2S,4R)-1-((S)-2-(2-(((E)-6-(3,5-Difluoro-4-((1R,3R)-2-(2-fluoro-2-methylpropyl)-3-methyl-2,3,4,9-tetrahydro-1H-pyrido[3,4-b]indol-1-yl)phenoxy)hex-3-en-1-yl)oxy)acetamido)-3,3-dimethylbutanoyl)-4-hydroxy-N-(4-(4-methylthiazol-5-yl)benzyl)pyrrolidine-2-carboxamide]
ER degradation ≥ 90% at 0.3 μM: • | DC50: 3 nM

Cc1ncsc1-c1ccc([C@H](C)NC(=O)[C@@H]2C[C@@H](O)CN2C(=O)[C@@H](NC(=O)COCCCCOCCCOc2cc(F)c([C@@H]3c4[nH]c5ccccc5c4C[C@@H](C)N3CC(C)(C)F)c(F)c2)C(C)(C)C)cc1 [Example 154, (2S,4R)-1-((S)-2-(2-(4-(3-(3,5-Difluoro-4-((1R,3R)-2-(2-fluoro-2-methylpropyl)-3-methyl-2,3,4,9-tetrahydro-1H-pyrido[3,4-b]indol-1-yl)phenoxy)propoxy)butoxy)acetamido)-3,3-dimethylbutanoyl)-4-hydroxy-N—((S)-1-(4-(4-methylthiazol-5-yl)phenyl)ethyl)pyrrolidine-2-carboxamide]
ER degradation ≥ 90% at 0.3 μM: • | DC50: 0.7 nM

Cc1ncsc1-c1ccc(CNC(=O)[C@@H]2C[C@@H](O)CN2C(=O)[C@@H](NC(=O)COCCOCCCCCOc2cnc([C@@H]3c4[nH]c5ccccc5c4C[C@@H](C)N3CC(C)(F)F)c(F)c2)C(C)(C)C)cc1 [Example 164, (2S,4R)-1-((S)-2-(2-(2-((5-((6-((1S,3R)-2-(2,2-Difluoropropyl)-3-methyl-2,3,4,9-tetrahydro-1H-pyrido[3,4-b]indol-1-yl)-5-fluoropyridin-3-yl)oxy)pentyl)oxy)ethoxy)acetamido)-3,3-dimethylbutanoyl)-4-hydroxy-N-(4-(4-methylthiazol-5-yl)benzyl)pyrrolidine-2-carboxamide]
ER degradation ≥ 90% at 0.3 μM: •• | DC50: 4.2 nM

Cc1ncsc1-c1ccc([C@H](C)NC(=O)[C@@H]2C[C@@H](O)CN2C(=O)[C@@H](NC(=O)COCCOCCCCCOc2cc(F)c([C@@H]3c4[nH]c5ccccc5c4C[C@@H](C)N3CC(C)(C)F)c(F)c2)C(C)(C)C)cc1 [Example 156, (2S,4R)-1-((S)-2-(2-(2-((5-(3,5-Difluoro-4-((1R,3R)-2-(2-fluoro-2-methylpropyl)-3-methyl-2,3,4,9-tetrahydro-1H-pyrido[3,4-b]indol-1-yl)phenoxy)pentyl)oxy)ethoxy)acetamido)-3,3-dimethylbutanoyl)-4-hydroxy-N—((S)-1-(4-(4-methylthiazol-5-yl)phenyl)ethyl)pyrrolidine-2-carboxamide]
ER degradation ≥ 90% at 0.3 μM: •• | DC50: 1.5 nM

Cc1ncsc1-c1ccc(CNC(=O)[C@@H]2C[C@@H](O)CN2C(=O)[C@@H](NC(=O)COCCCOCCOc2ccc([C@@H]3c4[nH]c5ccccc5c4C[C@@H](C)N3CC(F)F)nc2)C(C)(C)C)cc1 [Example 26, (2S,4R)-1-((S)-2-(2-(3-(2-((6-((1S,3R)-2-(2,2-Difluoroethyl)-3-methyl-2,3,4,9-tetrahydro-1H-pyrido[3,4-b]indol-1-yl)pyridin-3-yl)oxy)ethoxy)propoxy)acetamido)-3,3-dimethylbutanoyl)-4-hydroxy-N-(4-(4-methylthiazol-5-yl)benzyl)pyrrolidine-2-carboxamide]
ER degradation ≥ 90% at 0.3 μM: • | DC50: 7.5 nM

Cc1ncsc1-c1ccc(CNC(=O)[C@@H]2C[C@@H](O)CN2C(=O)[C@@H](NC(=O)COCCOc2ccc(COc3cc(F)c([C@@H]4c5[nH]c6ccccc6c5C[C@@H](C)N4CC(C)(C)F)c(F)c3)cc2)C(C)(C)C)cc1 [Example 5, (2S,4R)-1-((S)-2-(2-(2-(4-((3,5-Difluoro-4-((1R,3R)-2-(2-fluoro-2-methylpropyl)-3-methyl-2,3,4,9-tetrahydro-1H-pyrido[3,4-b]indol-1-yl)phenoxy)methyl)phenoxy)ethoxy)acetamido)-3,3-dimethylbutanoyl)-4-hydroxy-N-(4-(4-methylthiazol-5-yl)benzyl)pyrrolidine-2-carboxamide]
ER degradation ≥ 90% at 0.3 μM: • | DC50: 2.6 nM

Cc1ncsc1-c1ccc([C@H](C)NC(=O)[C@@H]2C[C@@H](O)CN2C(=O)[C@@H](NC(=O)COCCCCCOCCOc2cc(F)c([C@@H]3c4[nH]c5ccccc5c4C[C@@H](C)N3CC(C)(C)F)c(F)c2)C(C)(C)C)cc1 [Example 157, (2S,4R)-1-((S)-2-(2-((5-(2-(3,5-Difluoro-4-((1R,3R)-2-(2-fluoro-2-methylpropyl)-3-methyl-2,3,4,9-tetrahydro-1H-pyrido[3,4-b]indol-1-yl)phenoxy)ethoxy)pentyl)oxy)acetamido)-3,3-dimethylbutanoyl)-4-hydroxy-N—((S)-1-(4-(4-methylthiazol-5-yl)phenyl)ethyl)pyrrolidine-2-carboxamide]
ER degradation ≥ 90% at 0.3 μM: •• | DC50: 0.4 nM

Cc1ncsc1-c1ccc([C@H](C)NC(=O)[C@@H]2C[C@@H](O)CN2C(=O)[C@@H](NC(=O)COCCc2ccc(COc3cc(F)c([C@@H]4c5[nH]c6ccccc6c5C[C@@H](C)N4CC(C)(C)F)c(F)c3)nc2)C(C)(C)C)cc1 [Example 159, (2S,4R)-1-((S)-2-(2-(2-(6-((3,5-Difluoro-4-((1R,3R)-2-(2-fluoro-2-methylpropyl)-3-methyl-2,3,4,9-tetrahydro-1H-pyrido[3,4-b]indol-1-yl)phenoxy)methyl)pyridin-3-yl)ethoxy)acetamido)-3,3-dimethylbutanoyl)-4-hydroxy-N—((S)-1-(4-(4-methylthiazol-5-yl)phenyl)ethyl)pyrrolidine-2-carboxamide]
ER degradation ≥ 90% at 0.3 μM: •• | DC50: 0.5 nM

Cc1ncsc1-c1ccc([C@H](C)NC(=O)[C@@H]2C[C@@H](O)CN2C(=O)[C@@H](NC(=O)COCCOCCCCCOc2cc(F)c([C@@H]3c4[nH]c5ccccc5c4C[C@@H](C)N3CC(F)(F)F)c(F)c2)C(C)(C)C)cc1 [Example 140, (2S,4R)-1-((S)-2-(2-(2-((5-(3,5-Difluoro-4-((1R,3R)-3-methyl-2-(2,2,2-trifluoroethyl)-2,3,4,9-tetrahydro-1H-pyrido[3,4-b]indol-1-yl)phenoxy)pentyl)oxy)ethoxy)acetamido)-3,3-dimethylbutanoyl)-4-hydroxy-N—((S)-1-(4-(4-methylthiazol-5-yl)phenyl)ethyl)pyrrolidine-2-carboxamide]
ER degradation ≥ 90% at 0.3 μM: •• | DC50: 0.6 nM

Cc1ncsc1-c1ccc(CNC(=O)[C@@H]2C[C@@H](O)CN2C(=O)[C@@H](NC(=O)COCCOCCOCCOCCOc2cc(F)c([C@@H]3c4[nH]c5ccccc5c4C[C@@H](C)N3CC(C)(C)F)c(F)c2)C(C)(C)C)cc1 [Example 37, (2S,4R)-1-((S)-2-(tert-Butyl)-17-(3,5-difluoro-4-((1R,3R)-2-(2-fluoro-2-methylpropyl)-3-methyl-2,3,4,9-tetrahydro-1H-pyrido[3,4-b]indol-1-yl)phenoxy)-4-oxo-6,9,12,15-tetraoxa-3-azaheptadecanoyl)-4-hydroxy-N-(4-(4-methylthiazol-5-yl)benzyl)pyrrolidine-2-carboxamide]
ER degradation ≥ 90% at 0.3 μM: •• | DC50: 3 nM
